Assay results published in US11932658B2 (BRISTOL-MYERS SQUIBB COMPANY, priority 2016, dated 2024).

What was measured:
[1] = molecular target: T1, protease-activated receptor type 4 (PAR4) (Homo sapiens, UniProt Q96RI0); details: abstract of J. Med. Chem. 44(22):3746-3749 (2001); cited from earlier work
T1 sequence (Q96RI0 18-385): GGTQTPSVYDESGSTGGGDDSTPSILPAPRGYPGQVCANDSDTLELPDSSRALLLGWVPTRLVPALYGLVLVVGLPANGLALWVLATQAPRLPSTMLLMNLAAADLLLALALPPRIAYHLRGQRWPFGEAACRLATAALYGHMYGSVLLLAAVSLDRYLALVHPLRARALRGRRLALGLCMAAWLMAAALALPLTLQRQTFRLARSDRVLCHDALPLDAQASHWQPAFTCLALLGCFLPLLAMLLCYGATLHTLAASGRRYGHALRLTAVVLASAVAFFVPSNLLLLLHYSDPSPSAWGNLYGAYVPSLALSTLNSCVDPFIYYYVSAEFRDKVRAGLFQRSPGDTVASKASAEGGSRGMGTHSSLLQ

[2] = molecular target: T2, PAR1 (Homo sapiens, UniProt P25116); details: ACS patients, TRACER phase III trial; cited from earlier work
T2 construct: in the TRACER phase III trial in ACS patients; host or cells: ACS patients (clinical trial)
T2 sequence (P25116 22-425): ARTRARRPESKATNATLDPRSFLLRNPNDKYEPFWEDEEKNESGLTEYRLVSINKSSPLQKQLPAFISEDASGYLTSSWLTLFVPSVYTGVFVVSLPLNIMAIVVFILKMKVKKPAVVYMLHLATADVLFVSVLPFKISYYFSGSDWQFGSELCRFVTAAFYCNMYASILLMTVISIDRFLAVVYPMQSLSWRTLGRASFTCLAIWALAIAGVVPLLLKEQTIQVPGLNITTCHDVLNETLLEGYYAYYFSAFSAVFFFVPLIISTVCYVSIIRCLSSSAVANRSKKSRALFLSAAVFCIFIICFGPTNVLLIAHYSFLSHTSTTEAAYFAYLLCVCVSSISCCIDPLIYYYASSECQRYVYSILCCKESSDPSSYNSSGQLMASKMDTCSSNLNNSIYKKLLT

[3] = system: washed platelets
Experimental: Human blood was collected in ACD (85 mM tri-sodium citrate, 78 mM citric acid, 110 mM D-glucose, pH 4.4) at a ratio of 1.4 ml per 10 ml blood. PRP was isolated by centrifugation at 170 g for 14 minutes and platelets were further pelleted by centrifugation at 1300 g for 6 minutes. Platelets were washed once with 10 ml ACD containing 1 mg/ml bovine serum albumin. Platelets were resuspended at ˜2.5×10^8/ml in Tyrode's Buffer (137 mM NaCl, 2 mM KCl, 1.0 mM MgCl2, 1 mM CaCl2), 5 mM glucose, 20 mM HEPES pH 7.4).

[4] = molecular target: T3, PAR4 (Homo sapiens, UniProt Q96RI0); experiment: PAR4 FLIPR assay (antagonism of agonist peptide-induced calcium mobilization); assay type: cell-based
T3 construct: expressed in transfected cells; host or cells: HEK293 PAR4 Clone 1.2A (BMS Arctic ID 383940)
T3 sequence (Q96RI0 18-385): T1 sequence (Q96RI0 18-385)
Method in brief: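 Antagonism was taken as block of calcium mobilization evoked by the agonist peptide H-Ala-Phe(4-F)-Pro-Gly-Trp-Leu-Val-Lys-Asn-[…]-NH2, added after 30 min room-temperature compound preincubation in dye-loaded PAR4-transfected HEK293 cells (endogenous PAR1). Fluorescence was read on FDSS, with compound addition alone used as the agonist counter-screen; values come from 11-point concentration-response curves.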

Row | SMILES | IC50 [4] [nM] | other results
1 | CCOC(=O)c1ccc(-c2nn(Cc3ccccc3)c3ccccc23)cc1 [YD-3, ethyl 4-(1-benzyl-1H-indazol-3-yl)benzoate] |  | Inhibition of PAR4-dependent platelet activation [1]: selective and potent inhibitor
2 | CCOC(=O)N[C@@H]1CC[C@@H]2[C@@H](C1)C[C@H]1C(=O)O[C@H](C)[C@H]1[C@H]2/C=C/c1ccc(-c2cccc(F)c2)cn1 [vorapaxar] |  | Cardiovascular events [2]: did not significantly reduce; Risk of major bleeding [2]: significantly increased
3 | C[C@H](N)C(=O)N[C@@H](Cc1ccc(O)cc1)C(=O)N1CCC[C@H]1C(=O)NCC(=O)N[C@@H](CCCCN)C(=O)N[C@@H](Cc1ccccc1)C(=O)O [AYPGKF] |  | EC50 [3]: 12000 nM
4 | COc1cnc2c(-c3nc4ccc5c(c4s3)C[C@@H](CNC(=O)OCc3ccccc3)O5)cc(C)cc2n1 [Example 225, (S)-benzyl ((2-(2-methoxy-7-methylquinoxalin-5-yl)-7,8-dihydrobenzofuro[5,4-d]thiazol-7-yl)methy 1)carbamate] | 0.6 | 
5 | COc1cnc2c(-c3nc4c(C)cc5c(c4s3)OC[C@H](COC(=O)Nc3cccnc3)O5)cc(C#N)cc2n1 [Example 93, (R)-(2-(7-cyano-2-methoxyquinoxalin-5-yl)-4-methyl-7,8-dihydro-[1,4]dioxino[2′,3′:3,4]benzo[1,2-d]thiazol-7-yl)methyl pyridin-3-ylcarbamate] | 20 | 
6 | COc1cnc2c(-c3nc4c(C)cc5c(c4s3)OCC(COC(=O)Nc3ccc(F)nc3)O5)cc(Cl)cc2n1 (centres unmarked) [Example 96, (2-(7-chloro-2-methoxyquinoxalin-5-yl)-4-methyl-7,8-dihydro-[1,4]dioxino[2′,3′:3,4]benzo[1,2-d]thiazol-7-yl)methyl (6-fluoropyridin-3-yl)carbamate] | 12 | 
7 | COc1cnc2c(-c3nc4cc(F)c5c(c4s3)C[C@](C)(COC(=O)Nc3cccnc3)O5)cc(C)cc2n1 [Example 183, (R)-(5-fluoro-2-(2-methoxy-7-methylquinoxalin-5-yl)-7-methyl-7,8-dihydrobenzofuro[5,4-d]thiazol-7-yl)methyl pyridin-3-ylcarbamate] | 2.3 | 
8 | COc1cnc2c(-c3nc4c(Cl)cc5c(c4s3)OC[C@H](COC(=O)Nc3cnc4c(c3)ncn4C)O5)cc(C)cc2n1 [Example 67, (R)-(4-chloro-2-(2-methoxy-7-methylquinoxalin-5-yl)-7,8-dihydro-[1,4]dioxino[2′,3′:3,4]benzo[1,2-d]thiazol-7-yl)methyl (3-methyl-3H-imidazo[4,5-b]pyridin-6-yl)carbamate] | 0.6 | 
9 | Cc1ncc(NC(=O)OC[C@H]2Cc3c(c(F)cc4nc(-c5cc(Cl)cc6cc(OC(F)F)cnc56)sc34)O2)cn1 [Example 273, (R)-(2-(6-chloro-3-(difluoromethoxy)quinolin-8-yl)-5-fluoro-7,8-dihydrobenzofuro[5,4-d]thiazol-7-yl)methyl (2-methylpyrimidin-5-yl)carbamate] | 6.4 | 
10 | COc1cnc2c(-c3nc4cc(F)c5c(c4s3)C[C@@H](COC(=O)Nc3cnc(C)nc3)O5)cc(C)cc2n1 [Example 151, (S)-(5-fluoro-2-(2-methoxy-7-methylquinoxalin-5-yl)-7,8-dihydrobenzofuro[5,4-d]thiazol-7-yl)methyl (2-methylpyrimidin-5-yl)carbamate] | 3.9 | 
11 | COc1cnc2c(-c3nc4cc(F)c5c(c4s3)C[C@](C)(COC(=O)Nc3cnc(OCCO)nc3)O5)cc(C)cc2n1 [Example 251, (R)-(5-fluoro-2-(2-methoxy-7-methylquinoxalin-5-yl)-7-methyl-7,8-dihydrobenzofuro[5,4-d]thiazol-7-yl)methyl (2-(2-hydroxyethoxy)pyrimidin-5-yl)carbamate] | 0.9 | 
12 | COc1cnc2c(-c3nc4ccc5c(c4s3)C(C)C(CO)O5)cc(C)cc2n1 (centres unmarked) [Example 189, (2-(2-methoxy-7-methylquinoxalin-5-yl)-8-methyl-7,8-dihydrobenzofuro[5,4-d]thiazol-7-yl)methanol] | 11 | 
13 | COc1ccc(NC(=O)OC[C@@H]2COc3c(cc(Cl)c4nc(-c5cc(C)cc6nc(OC)cnc56)sc34)O2)cn1 (single isomer, unassigned) [Example 2] | 130 | 
14 | COc1cnc2c(-c3nc4c(C)cc5c(c4s3)OCC(COC(=O)Nc3cnc(C)nc3)O5)cc(C)cc2n1 (centres unmarked) [Example 79, (2-(2-methoxy-7-methylquinoxalin-5-yl)-4-methyl-7,8-dihydro-[1,4]dioxino[2′,3′:3,4]benzo[1,2-d]thiazol-7-yl)methyl (2-methylpyrimidin-5-yl)carbamate] | 29 | 
15 | COc1cnc2c(-c3nc4ccc5c(c4s3)CC(C)(C)O5)cc(C)cc2n1 [Example 186, 2-(2-methoxy-7-methylquinoxalin-5-yl)-7,7-dimethyl-7,8-dihydrobenzofuro[5,4-d]thiazole] | 8.8 | 
16 | COc1ccc(NC(=O)OC[C@H]2COc3c(cc(C)c4nc(-c5cc(C#N)cc6nc(OC)cnc56)sc34)O2)cn1 [Example 94, (R)-(2-(7-cyano-2-methoxyquinoxalin-5-yl)-4-methyl-7,8-dihydro-[1,4]dioxino[2′,3′:3,4]benzo[1,2-d]thiazol-7-yl)methyl (6-methoxypyridin-3-yl)carbamate] | 29 | 
17 | COc1cnc2c(-c3nc4cc(F)c5c(c4s3)C[C@@H](CNC(=O)Oc3ccccc3)O5)cc(C)cc2n1 [Example 212, (S)-phenyl ((5-fluoro-2-(2-methoxy-7-methylquinoxalin-5-yl)-7,8-dihydrobenzofuro[5,4-d]thiazol-7-yl)methyl)carbamate] | 2.1 | 
18 | COc1cnc2c(-c3nc4ccc5c(c4s3)C[C@](C)(COC(=O)Nc3cnc(C)nc3)O5)cc(C)cc2n1 [Example 194, (R)-(2-(2-methoxy-7-methylquinoxalin-5-yl)-7-methyl-7,8-dihydrobenzofuro[5,4-d]thiazol-7-yl)methyl (2-methylpyrimidin-5-yl)carbamate] | 2.5 | 
19 | COc1cnc2c(-c3nc4cc(F)c5c(c4s3)C[C@H](COC(=O)Nc3cncnc3)O5)cc(C)cc2n1 [Example 185] | 6.9 | 
20 | C=Cc1ccc(NC(=O)OC[C@H]2COc3c(ccc4nc(-c5cc(C)cc6nc(OC)cnc56)sc34)O2)cn1 [Example 110, (R)-(2-(2-methoxy-7-methylquinoxalin-5-yl)-7,8-dihydro-[1,4]dioxino[2′,3′:3,4]benzo[1,2-d]thiazol-7-yl)methyl (6-vinylpyridin-3-yl)carbamate] | 1.6 | 
21 | COC(=O)c1cncc(NC(=O)OCC2COc3c(cc(C)c4nc(-c5cc(C)cc6nc(OC)cnc56)sc34)O2)c1 (centres unmarked) [Example 138, methyl 5-((((2-(2-methoxy-7-methylquinoxalin-5-yl)-4-methyl-7,8-dihydro-[1,4]dioxino[2′,3′:3,4]benzo[1,2-d]thiazol-7-yl)methoxy)carbonyl)amino)nicotinate] | 3.4 | 
22 | COc1cnc2c(-c3nc4cc(F)c5c(c4s3)C[C@H](COC(=O)Nc3cnc(C)nc3)O5)cc(C)cc2n1 [Example 145, (R)-(5-fluoro-2-(2-methoxy-7-methylquinoxalin-5-yl)-7,8-dihydrobenzofuro[5,4-d]thiazo 1-7-yl)methyl (2-methylpyrimidin-5-yl)carbamate] | 1.8 | 
